Experimental data from patent US20210403435A1, “HERBICIDAL COMPOUNDS” (SYNGENTA CROP PROTECTION AG, priority 2018, published 2021).

Key:
Experiment in all cases: Post-emergence efficacy, glasshouse, evaluated after 13 days
Format in all cases: in vivo
[1] = tested on: Ipomoea hederacea (IPOHE); settings: post-emergence application, 500 g/Ha, evaluated after 13 days; for pest or weed control at 500 g/ha: Ipomoea hederacea, 312 h, read-out: Control of weed species IPOHE (100=total damage to plant; 0=no damage to plant)
Protocol: (§1) Seeds of a variety of test species were sown in standard soil in pots. After cultivation for 14 days (post-emergence) under controlled conditions in a glasshouse (at 24/16° C., day/night; 14 hours light; 65% humidity), the plants were sprayed with an aqueous spray solution derived from the dissolution of the technical active ingredient formula (I) in a small amount of acetone and a special solvent and emulsifier mixture referred to as IF50 (11.12% Emulsogen EL360 TM+44.44% N-methylpyrrolidone+44.44% Dowanol DPM glycol ether), to create a 50 g/l solution which was then diluted to required concentration using 0.25% or 1% Empicol ESC70 (Sodium lauryl ether sulphate)+1% ammonium sulphate as diluent.
(§2) The test plants were then grown in a glasshouse under controlled conditions (at 24/16° C., day/night; 14 hours light; 65% humidity) and watered twice daily. After 13 days the test was evaluated (100=total damage to plant; 0=no damage to plant).
(§3) Ipomoea hederacea (IPOHE), Euphorbia heterophylla (EPHHL), Chenopodium album (CHEAL), Amaranthus palmeri (AMAPA), Lolium perenne (LOLPE), Digitaria sanguinalis (DIGSA), Eleusine indica (ELEIN), Echinochloa crus-galli (ECHCG), Setaria faberi (SETFA)

Eleusine indica (ELEIN) = settings: post-emergence application, 500 g/Ha, evaluated after 13 days; for pest or weed control at 500 g/ha: Eleusine indica, 312 h, read-out: Control of weed species ELEIN (100=total damage to plant; 0=no damage to plant)
Protocol: as §1, §2, §3

[2] = tested on: Digitaria sanguinalis (DIGSA); settings: post-emergence application, 500 g/Ha, evaluated after 13 days; for pest or weed control at 500 g/ha: Digitaria sanguinalis, 312 h, read-out: Control of weed species DIGSA (100=total damage to plant; 0=no damage to plant)
Protocol: as §1, §2, §3

Lolium perenne (LOLPE) = settings: post-emergence application, 500 g/Ha, evaluated after 13 days; for pest or weed control at 500 g/ha: Lolium perenne, 312 h, read-out: Control of weed species LOLPE (100=total damage to plant; 0=no damage to plant)
Protocol: as §1, §2, §3

[3] = tested on: Chenopodium album (CHEAL); settings: post-emergence application, 500 g/Ha, evaluated after 13 days; for pest or weed control at 500 g/ha: Chenopodium album, 312 h, read-out: Control of weed species CHEAL (100=total damage to plant; 0=no damage to plant)
Protocol: as §1, §2, §3

[4] = tested on: Euphorbia heterophylla (EPHHL); settings: post-emergence application, 500 g/Ha, evaluated after 13 days; for pest or weed control at 500 g/ha: Euphorbia heterophylla, 312 h, read-out: Control of weed species EPHHL (100=total damage to plant; 0=no damage to plant)
Protocol: as §1, §2, §3

Setaria faberi (SETFA) = settings: post-emergence application, 500 g/Ha, evaluated after 13 days; for pest or weed control at 500 g/ha: Setaria faberi, 312 h, read-out: Control of weed species SETFA (100=total damage to plant; 0=no damage to plant)
Protocol: as §1, §2, §3

[5] = tested on: Amaranthus palmeri (AMAPA); settings: post-emergence application, 500 g/Ha, evaluated after 13 days; for pest or weed control at 500 g/ha: Amaranthus palmeri, 312 h, read-out: Control of weed species AMAPA (100=total damage to plant; 0=no damage to plant)
Protocol: as §1, §2, §3

[6] = tested on: Echinochloa crus-galli (ECHCG); settings: post-emergence application, 500 g/Ha, evaluated after 13 days; for pest or weed control at 500 g/ha: Echinochloa crus-galli, 312 h, read-out: Control of weed species ECHCG (100=total damage to plant; 0=no damage to plant)
Protocol: as §1, §2, §3

| SMILES | pest or weed control at 500 g/ha [1] | pest or weed control at 500 g/ha (Eleusine indica (ELEIN)) | pest or weed control at 500 g/ha [2] | pest or weed control at 500 g/ha (Lolium perenne (LOLPE)) | pest or weed control at 500 g/ha [3] | pest or weed control at 500 g/ha [4] | pest or weed control at 500 g/ha (Setaria faberi (SETFA)) | pest or weed control at 500 g/ha [5] | pest or weed control at 500 g/ha [6] | Control of weed species IPOHE (100=total damage to plant; 0=no damage to plant) [1] | Control of weed species ELEIN (100=total damage to plant; 0=no damage to plant) (Eleusine indica (ELEIN)) | Control of weed species DIGSA (100=total damage to plant; 0=no damage to plant) [2] | Control of weed species LOLPE (100=total damage to plant; 0=no damage to plant) (Lolium perenne (LOLPE)) | Control of weed species CHEAL (100=total damage to plant; 0=no damage to plant) [3] | Control of weed species EPHHL (100=total damage to plant; 0=no damage to plant) [4] | Control of weed species SETFA (100=total damage to plant; 0=no damage to plant) (Setaria faberi (SETFA)) | Control of weed species AMAPA (100=total damage to plant; 0=no damage to plant) [5] | Control of weed species ECHCG (100=total damage to plant; 0=no damage to plant) [6] |
| --- | --- | --- | --- | --- | --- | --- | --- | --- | --- | --- | --- | --- | --- | --- | --- | --- | --- | --- |
| COC(=O)CC[n+]1ccc(C(=O)N(C)C)cn1 [Compound A2] | 20% | 10% | 50% | 20% | 10% | 50% | 30% | 10% | 30% | – | – | – | – | – | – | – | – | – |
| CN(C)C(=O)c1cc[n+](CCCS(=O)(=O)O)nc1 [Compound A3] | 20% | 10% | 20% | 10% | 70% | 90% | 20% | 90% | 20% | – | – | – | – | – | – | – | – | – |
| CC(C)NC(=O)c1cc[n+](CCS(=O)(=O)O)nc1 [Compound A5] | 60% | 40% | 50% | 50% | 70% | 30% | 40% | 90% | 60% | – | – | – | – | – | – | – | – | – |
| CC(C)NC(=O)c1cc[n+](CCC(=O)[O-])nc1 [Compound A6] | 60% | 70% | 90% | 90% | 100% | 50% | 90% | 100% | 50% | – | – | – | – | – | – | – | – | – |
| O=C(Nc1ccccc1)c1cc[n+](CCS(=O)(=O)[O-])nc1 [Compound A7] | 10% | 40% | 20% | 20% | 90% | 60% | 30% | 100% | 20% | – | – | – | – | – | – | – | – | – |
| CN(C(=O)c1cc[n+](CCS(=O)(=O)O)nc1)c1ccccc1 [Compound A8] | 30% | 40% | 20% | 0% | 90% | 80% | 20% | 100% | 10% | – | – | – | – | – | – | – | – | – |
| CN(C)C(=O)c1cc[n+](CCC(=O)O)nc1 [Compound A10] | 60% | 80% | 90% | 10% | 100% | 100% | 90% | 100% | 70% | – | – | – | – | – | – | – | – | – |
| CNC(=O)c1cc[n+](CCCS(=O)(=O)[O-])nc1 [Compound A11] | 30% | 10% | 70% | 30% | 80% | 70% | 20% | 40% | 70% | – | – | – | – | – | – | – | – | – |
| CNC(=O)c1cc[n+](CC[C@H](N)C(=O)O)nc1.O=C(O)C(F)(F)F.O=C([O-])C(F)(F)F [Compound A12] | – | – | – | – | – | – | – | – | – | 40 | 60 | 90 | 40 | 60 | 70 | 60 | 90 | 80 |
| CC(C)(C)NC(=O)c1cc[n+](CCS(=O)(=O)O)nc1 [Compound A13] | 60% | 70% | 80% | 60% | 100% | 70% | 80% | 100% | 60% | – | – | – | – | – | – | – | – | – |
| CC(C)N(C(=O)c1cc[n+](CCS(=O)(=O)O)nc1)C(C)C [Compound A14] | 30% | 10% | 30% | 0% | 70% | 50% | 10% | 100% | 10% | – | – | – | – | – | – | – | – | – |
| CC(C)(C)NC(=O)c1cc[n+](CCC(=O)O)nc1 [Compound A15] | 30% | 100% | 90% | 70% | 100% | 90% | 100% | 100% | 90% | – | – | – | – | – | – | – | – | – |
| C#CCNC(=O)c1cc[n+](CCS(=O)(=O)[O-])nc1 [Compound A16] | 80% | 90% | 70% | 60% | 90% | 80% | 70% | 100% | 90% | – | – | – | – | – | – | – | – | – |
| C#CCNC(=O)c1cc[n+](CCC(=O)O)nc1 [Compound A17] | 100% | 100% | 100% | 70% | 100% | 90% | 90% | 100% | 90% | – | – | – | – | – | – | – | – | – |
| C=CCNC(=O)c1cc[n+](CCS(=O)(=O)[O-])nc1 [Compound A18] | 70% | 90% | 80% | 70% | 90% | 70% | 50% | 100% | 90% | – | – | – | – | – | – | – | – | – |
| C=CCNC(=O)c1cc[n+](CCC(=O)O)nc1 [Compound A19] | 70% | 90% | 100% | 80% | 90% | 90% | 80% | 100% | 80% | – | – | – | – | – | – | – | – | – |
| O=C(NCc1ccccc1)c1cc[n+](CCS(=O)(=O)[O-])nc1 [Compound A20] | 50% | 80% | 60% | 30% | 100% | 80% | 90% | 100% | 60% | – | – | – | – | – | – | – | – | – |
